Experimental data from ChEMBL document CHEMBL5584243, “Discovery of JNJ-74856665: A Novel Isoquinolinone DHODH Inhibitor for the Treatment of AML” (J Med Chem, 2024).
Values after ≈ are worked out from the molar mass of the structure shown.

Key:
[1] = Half life in mouse hepatocyte; type: ADME, cell-based; settings: hepatocytes
[2] = Metabolic stability in monkey liver microsomes assessed as half life incubated upto 60 mins in presence of NADPH by LC-MS/MS analysis; type: ADME, Macaca mulatta, Microsome; settings: rhesus monkey
[3] = Cmax in C57BL mouse at […] measured upto 24 hrs by LC-MS/MS analysis; type: ADME, organism-based; settings: in vivo
[4] = Tmax in cynomolgus monkey at 10 mg/kg,po; type: ADME, organism-based, Macaca fascicularis; settings: in vivo
[5] = AUC (0 to infinity) in C57BL mouse at 2 mg/kg,iv measured upto 24 hrs by LC-MS/MS analysis; type: ADME, organism-based; settings: in vivo
[6] = biological target: Voltage-gated inwardly rectifying potassium channel KCNH2 (Homo sapiens, UniProt Q12809); assay: Inhibition of hERG; type: toxicity
[7] = Equilibrium solubility of compound in SGF at pH 1 using crystalline form incubated for 2 to 5 days by HPLC analysis; type: ADME; settings: time 2-5 day
[8] = Tmax in C57BL mouse at […] measured upto 24 hrs by LC-MS/MS analysis; type: ADME, organism-based; settings: in vivo
PXR (NR1I2) = biological target: T1, PXR (NR1I2) (Homo sapiens, UniProt O75469); assay: Activation of PXR (unknown origin) assessed as fold change at 10 uM relative to control; type: ADME; settings: read-out: FC
T1 sequence (O75469 whole entry): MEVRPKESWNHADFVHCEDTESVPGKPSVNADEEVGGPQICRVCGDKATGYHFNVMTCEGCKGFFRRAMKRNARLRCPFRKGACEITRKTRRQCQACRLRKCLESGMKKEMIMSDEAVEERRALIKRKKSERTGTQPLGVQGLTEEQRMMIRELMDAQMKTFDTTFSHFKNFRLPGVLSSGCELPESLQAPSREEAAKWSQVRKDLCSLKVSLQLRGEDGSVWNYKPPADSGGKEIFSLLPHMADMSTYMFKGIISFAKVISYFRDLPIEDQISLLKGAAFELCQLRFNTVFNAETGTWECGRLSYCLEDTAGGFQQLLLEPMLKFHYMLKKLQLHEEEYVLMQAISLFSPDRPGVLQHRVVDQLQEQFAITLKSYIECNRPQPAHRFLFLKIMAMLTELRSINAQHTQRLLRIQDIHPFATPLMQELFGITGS

[9] = biological target: T2, Kappa-type opioid receptor (Homo sapiens, UniProt P41145); assay: Inhibition of KOP (unknown origin) at 10 uM relative to control
MOLM-13 [10] = assay: Antitumor activity against human MOLM-13 cells xenografted in NSG mouse assessed as tumor growth inhibition at 0.125 mg/kg,po administrated daily for 10 days relative to control; type: functional; settings: MOLM-13, 240 h, time 10 day, read-out: TGI
[11] = Metabolic stability in human liver microsomes assessed as half life incubated upto 60 mins in presence of NADPH by LC-MS/MS analysis; type: ADME, Microsome
[12] = Half life in cynomolgus monkey at 1 mg/kg,iv; type: ADME, organism-based, Macaca fascicularis; settings: in vivo
[13] = Equilibrium solubility of compound in FaSSIF at pH 6.5 using crystalline form incubated for 2 to 5 days by HPLC analysis; type: ADME; settings: time 2-5 day
[14] = Equilibrium solubility of compound in PBS at pH 2 incubated for 2 to 5 days by HPLC analysis; type: physicochemical; settings: PBS, time 2-5 day
MOLM-13 [15] = assay: Antiproliferative activity against human MOLM-13 cells assessed as inhibition of cell growth incubated for 72 hrs by CellTiter-Glo assay; type: functional, cell-based; settings: MOLM-13, 72 h
[16] = biological target: T2, Kappa-type opioid receptor; assay: Inhibition of KOP (unknown origin)
[17] = Equilibrium solubility of compound in PBS at pH 7 incubated for 2 to 5 days by HPLC analysis; type: physicochemical; settings: time 2-5 day
[18] = Oral bioavailability in C57BL mouse at 10 mg/kg measured upto 24 hrs by LC-MS/MS analysis; type: ADME, organism-based; settings: in vivo
CYP3A4 = CYP3A4 (Homo sapiens, UniProt P08684); assay: Induction of CYP3A4 in cryopreserved human hepatocytes using midazolam as substrate assessed as fold change at 10 uM relative to control; type: ADME, cell-based, Hepatocyte; settings: probe midazolam, read-out: FC
[19] = Half life in dog hepatocyte; type: ADME, cell-based, Canis lupus familiaris; settings: hepatocytes
[20] = Half life in monkey hepatocyte; type: ADME, cell-based, Macaca mulatta; settings: rhesus monkey, hepatocytes
[21] = biological target: Serine/threonine-protein kinase WNK2 (Homo sapiens) (UniProt Q9Y3S1); assay: Inhibition of WNK2 (unknown origin) at 1 uM relative to control
[22] = Volume of distribution at steady state in C57BL mouse at 2 mg/kg,iv measured upto 24 hrs by LC-MS/MS analysis; type: ADME, organism-based; settings: in vivo, read-out: Vdss
[23] = Oral bioavailability in cynomolgus monkey at 10 mg/kg; type: ADME, organism-based, Macaca fascicularis; settings: in vivo
[24] = Passive permeability across apical to basolateral side in dog MDCK-MDR1 cells; type: ADME, cell-based, Canis lupus familiaris
[25] = biological target: T3, AhR (aryl hydrocarbon receptor) (Homo sapiens, UniProt P35869); assay: Activation of AhR (unknown origin) assessed as fold change at 1 to 10 uM relative to control; settings: dose 1-10 µM, read-out: FC
T3 sequence (P35869 whole entry): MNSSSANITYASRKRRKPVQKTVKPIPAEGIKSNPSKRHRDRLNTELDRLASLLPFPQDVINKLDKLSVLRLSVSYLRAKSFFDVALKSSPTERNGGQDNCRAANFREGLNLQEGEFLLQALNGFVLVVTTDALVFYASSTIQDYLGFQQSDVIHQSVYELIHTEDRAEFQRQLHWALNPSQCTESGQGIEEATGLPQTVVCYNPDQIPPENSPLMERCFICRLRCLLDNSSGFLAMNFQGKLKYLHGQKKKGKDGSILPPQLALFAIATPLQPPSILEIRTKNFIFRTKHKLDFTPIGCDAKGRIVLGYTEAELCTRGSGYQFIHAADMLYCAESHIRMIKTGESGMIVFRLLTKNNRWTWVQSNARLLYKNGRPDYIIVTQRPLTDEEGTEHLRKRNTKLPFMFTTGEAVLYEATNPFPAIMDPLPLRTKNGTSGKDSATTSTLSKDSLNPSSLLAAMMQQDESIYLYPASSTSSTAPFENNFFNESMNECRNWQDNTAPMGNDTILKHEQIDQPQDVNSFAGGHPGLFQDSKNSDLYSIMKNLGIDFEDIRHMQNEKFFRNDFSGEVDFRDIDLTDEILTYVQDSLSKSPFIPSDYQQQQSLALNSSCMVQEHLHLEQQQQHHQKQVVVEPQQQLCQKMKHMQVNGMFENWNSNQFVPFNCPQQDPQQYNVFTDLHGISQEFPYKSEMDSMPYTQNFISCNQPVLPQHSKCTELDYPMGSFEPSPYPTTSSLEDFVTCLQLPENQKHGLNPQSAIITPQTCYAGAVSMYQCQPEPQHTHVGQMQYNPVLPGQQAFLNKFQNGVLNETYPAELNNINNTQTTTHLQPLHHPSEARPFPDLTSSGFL

MOLM-13 [26] = assay: Antitumor activity against human MOLM-13 cells xenografted in NSG mouse assessed as tumor growth inhibition at 0.031 mg/kg,po administrated daily for 10 days relative to control; type: functional; settings: MOLM-13, 240 h, time 10 day, read-out: TGI
[27] = Inhibition of Sodium ion channel (unknown origin); set-up: species or system Homo sapiens
[28] = Cmax in cynomolgus monkey at 10 mg/kg,po; type: ADME, organism-based, Macaca fascicularis; settings: in vivo

T2 sequence (P41145 whole entry): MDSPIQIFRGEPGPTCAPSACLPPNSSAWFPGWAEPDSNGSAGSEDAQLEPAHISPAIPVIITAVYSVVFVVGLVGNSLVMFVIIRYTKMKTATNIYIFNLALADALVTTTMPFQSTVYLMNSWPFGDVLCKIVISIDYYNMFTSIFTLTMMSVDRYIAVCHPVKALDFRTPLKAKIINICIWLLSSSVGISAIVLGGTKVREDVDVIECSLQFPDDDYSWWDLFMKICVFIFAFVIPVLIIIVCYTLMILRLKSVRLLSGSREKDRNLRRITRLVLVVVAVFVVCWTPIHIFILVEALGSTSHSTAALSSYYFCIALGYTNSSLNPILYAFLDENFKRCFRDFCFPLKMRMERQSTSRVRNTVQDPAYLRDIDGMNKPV
Sequence of Voltage-gated inwardly rectifying potassium channel KCNH2 (Q12809 whole entry): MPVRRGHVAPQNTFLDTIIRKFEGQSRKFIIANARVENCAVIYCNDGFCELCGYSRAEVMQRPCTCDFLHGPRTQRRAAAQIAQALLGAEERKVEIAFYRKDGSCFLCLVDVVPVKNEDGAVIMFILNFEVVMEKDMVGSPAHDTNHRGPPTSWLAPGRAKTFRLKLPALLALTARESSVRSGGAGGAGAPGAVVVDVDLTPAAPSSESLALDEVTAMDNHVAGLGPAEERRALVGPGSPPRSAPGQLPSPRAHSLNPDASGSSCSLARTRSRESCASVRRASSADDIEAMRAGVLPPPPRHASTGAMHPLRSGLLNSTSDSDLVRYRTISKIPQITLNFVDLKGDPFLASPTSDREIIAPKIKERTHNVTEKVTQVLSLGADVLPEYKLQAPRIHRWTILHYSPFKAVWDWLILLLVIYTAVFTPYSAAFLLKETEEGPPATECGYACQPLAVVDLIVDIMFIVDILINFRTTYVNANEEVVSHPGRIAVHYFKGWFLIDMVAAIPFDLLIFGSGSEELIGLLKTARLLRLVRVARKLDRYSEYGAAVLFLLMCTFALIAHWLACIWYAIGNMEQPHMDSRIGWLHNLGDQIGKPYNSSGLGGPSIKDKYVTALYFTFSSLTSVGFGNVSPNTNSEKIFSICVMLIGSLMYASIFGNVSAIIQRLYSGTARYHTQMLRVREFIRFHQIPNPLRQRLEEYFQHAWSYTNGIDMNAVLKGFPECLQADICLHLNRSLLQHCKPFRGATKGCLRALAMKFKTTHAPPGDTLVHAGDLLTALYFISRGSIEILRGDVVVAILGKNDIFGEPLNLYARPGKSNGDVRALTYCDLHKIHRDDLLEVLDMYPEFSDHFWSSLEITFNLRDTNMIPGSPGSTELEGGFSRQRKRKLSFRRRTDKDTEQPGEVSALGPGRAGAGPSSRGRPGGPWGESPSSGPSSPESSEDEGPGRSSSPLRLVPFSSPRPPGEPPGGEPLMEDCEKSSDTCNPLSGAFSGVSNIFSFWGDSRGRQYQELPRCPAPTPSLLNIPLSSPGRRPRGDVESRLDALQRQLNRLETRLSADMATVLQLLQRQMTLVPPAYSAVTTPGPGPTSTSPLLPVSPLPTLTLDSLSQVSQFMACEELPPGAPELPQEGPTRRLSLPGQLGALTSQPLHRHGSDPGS
Sequence of CYP3A4 (P08684 whole entry): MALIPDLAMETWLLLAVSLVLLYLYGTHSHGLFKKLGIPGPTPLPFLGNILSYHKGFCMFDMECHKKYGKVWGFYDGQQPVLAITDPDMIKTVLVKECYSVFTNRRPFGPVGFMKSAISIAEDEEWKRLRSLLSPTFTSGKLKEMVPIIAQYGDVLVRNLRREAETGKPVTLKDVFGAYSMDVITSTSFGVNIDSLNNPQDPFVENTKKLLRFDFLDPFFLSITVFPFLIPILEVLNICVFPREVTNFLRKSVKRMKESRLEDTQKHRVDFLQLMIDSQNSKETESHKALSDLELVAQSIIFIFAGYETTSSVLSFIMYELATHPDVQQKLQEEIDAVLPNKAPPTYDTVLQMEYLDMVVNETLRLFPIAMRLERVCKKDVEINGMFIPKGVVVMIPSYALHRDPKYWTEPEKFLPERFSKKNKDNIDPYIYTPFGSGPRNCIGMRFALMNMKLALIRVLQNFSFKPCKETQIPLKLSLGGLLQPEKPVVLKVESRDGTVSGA
Sequence of Serine/threonine-protein kinase WNK2 (Homo sapiens) (Q9Y3S1 whole entry): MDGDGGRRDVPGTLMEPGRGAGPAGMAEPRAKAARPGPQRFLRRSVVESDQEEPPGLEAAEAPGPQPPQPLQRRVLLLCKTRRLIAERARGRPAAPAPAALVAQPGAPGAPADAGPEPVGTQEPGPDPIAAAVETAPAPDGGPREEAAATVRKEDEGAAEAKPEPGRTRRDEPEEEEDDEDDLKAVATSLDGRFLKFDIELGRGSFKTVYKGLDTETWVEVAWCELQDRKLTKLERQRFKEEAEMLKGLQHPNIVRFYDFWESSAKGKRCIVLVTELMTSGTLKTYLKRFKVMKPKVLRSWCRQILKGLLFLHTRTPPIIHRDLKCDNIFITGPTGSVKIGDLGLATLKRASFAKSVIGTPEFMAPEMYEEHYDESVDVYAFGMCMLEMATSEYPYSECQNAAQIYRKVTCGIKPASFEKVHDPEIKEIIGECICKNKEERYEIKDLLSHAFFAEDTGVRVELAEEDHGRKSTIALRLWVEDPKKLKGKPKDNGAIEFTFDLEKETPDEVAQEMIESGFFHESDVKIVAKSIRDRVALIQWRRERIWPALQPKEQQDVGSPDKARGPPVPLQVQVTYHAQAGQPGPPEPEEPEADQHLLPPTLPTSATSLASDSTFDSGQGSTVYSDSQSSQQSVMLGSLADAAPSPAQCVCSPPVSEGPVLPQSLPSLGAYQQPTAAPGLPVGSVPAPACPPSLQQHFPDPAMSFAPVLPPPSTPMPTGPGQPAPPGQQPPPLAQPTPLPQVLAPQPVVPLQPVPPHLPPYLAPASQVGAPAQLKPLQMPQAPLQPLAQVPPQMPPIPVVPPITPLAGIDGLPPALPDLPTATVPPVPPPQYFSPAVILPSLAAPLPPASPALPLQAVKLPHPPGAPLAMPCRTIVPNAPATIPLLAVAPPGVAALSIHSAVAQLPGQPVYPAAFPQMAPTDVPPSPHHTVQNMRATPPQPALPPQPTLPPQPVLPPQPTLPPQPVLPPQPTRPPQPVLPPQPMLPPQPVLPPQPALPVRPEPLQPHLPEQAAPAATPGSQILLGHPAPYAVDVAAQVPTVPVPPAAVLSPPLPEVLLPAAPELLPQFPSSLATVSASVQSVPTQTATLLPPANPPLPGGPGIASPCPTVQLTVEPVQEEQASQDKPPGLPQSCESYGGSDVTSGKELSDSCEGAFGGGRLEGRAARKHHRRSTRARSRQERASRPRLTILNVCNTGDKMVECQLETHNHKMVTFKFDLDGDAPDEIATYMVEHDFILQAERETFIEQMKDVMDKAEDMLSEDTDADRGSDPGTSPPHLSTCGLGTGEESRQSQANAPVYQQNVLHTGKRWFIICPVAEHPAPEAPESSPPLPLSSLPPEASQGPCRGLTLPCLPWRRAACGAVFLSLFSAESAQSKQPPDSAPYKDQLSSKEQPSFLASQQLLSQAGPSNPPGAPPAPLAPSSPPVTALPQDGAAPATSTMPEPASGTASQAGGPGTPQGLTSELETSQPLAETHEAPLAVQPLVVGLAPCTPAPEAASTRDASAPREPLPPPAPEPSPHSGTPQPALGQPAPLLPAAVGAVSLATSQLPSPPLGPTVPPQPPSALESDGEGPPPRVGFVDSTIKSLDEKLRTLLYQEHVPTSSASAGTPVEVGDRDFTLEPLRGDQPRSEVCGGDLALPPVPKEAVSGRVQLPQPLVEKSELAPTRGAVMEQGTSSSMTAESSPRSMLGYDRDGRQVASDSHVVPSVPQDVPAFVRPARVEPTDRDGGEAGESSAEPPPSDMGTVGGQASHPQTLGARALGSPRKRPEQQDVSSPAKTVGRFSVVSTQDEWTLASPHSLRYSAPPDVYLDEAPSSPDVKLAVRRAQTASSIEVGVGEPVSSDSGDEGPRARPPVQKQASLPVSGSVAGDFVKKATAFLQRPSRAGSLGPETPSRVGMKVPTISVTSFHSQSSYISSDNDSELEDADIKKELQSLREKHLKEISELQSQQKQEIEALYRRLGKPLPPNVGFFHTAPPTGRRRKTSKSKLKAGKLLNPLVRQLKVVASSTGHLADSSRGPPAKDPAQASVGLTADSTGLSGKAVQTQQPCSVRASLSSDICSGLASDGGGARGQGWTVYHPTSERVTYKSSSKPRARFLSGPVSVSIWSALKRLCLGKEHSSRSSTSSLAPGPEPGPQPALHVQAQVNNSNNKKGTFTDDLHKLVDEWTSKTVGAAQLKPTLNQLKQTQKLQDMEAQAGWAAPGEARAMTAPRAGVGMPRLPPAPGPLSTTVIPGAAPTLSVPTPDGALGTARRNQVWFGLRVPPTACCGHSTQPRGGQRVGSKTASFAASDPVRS

- half-life [1]: > 6.18 h
- half-life [2]: > 3 h
- Cmax [3]: 6200 ng/mL
- Tmax [4]: 3.3 h
- AUC [5]: 57200 ng·h/mL
- solubility thermodynamic [7]: 25 µg/mL (≈ 57.3 µM)
- Tmax [8]: 1.7 h
- fold induction at 10 µM (PXR (NR1I2)): 7.4
- inhibition [9]: 96%
- half-life [11]: > 3 h
- half-life [12]: 6.4 h
- solubility thermodynamic [13]: 67 µg/mL (≈ 153 µM)
- solubility thermodynamic [14]: 325 µM (≈ 142 µg/mL)
- IC50 (MOLM-13 [15]): 0.00019 µM
- IC50 [16]: 14 µM
- solubility thermodynamic [17]: 371 µM (≈ 162 µg/mL)
- bioavailability [18]: 125%
- fold induction at 10 µM (CYP3A4): 2.5
- half-life [19]: 0.242 h
- half-life [20]: > 6.18 h
- inhibition [21]: 51%
- Vd [22]: 1.6 L/kg
- bioavailability [23]: 88%
- Papp A→B [24]: 33.1 ×10⁻⁶ cm/s
- fold induction [25]: < 2
- IC50 [27]: > 10 µM
- Cmax [28]: 5800 ng/mL
SMILES: CCn1c(CO)nn(-c2cc3c(C(C)C)cn(-c4ccccc4C)c(=O)c3cc2F)c1=O
- IC50 [6]: > 10 µM
- inhibition in vivo at 0.125 mg/kg (MOLM-13 [10]): 92%
- inhibition in vivo at 0.031 mg/kg (MOLM-13 [26]): 42%
